According to ChEMBL document CHEMBL1155829, “Synthesis and cytotoxic, anti-inflammatory, and anti-oxidant activities of 2',5'-dialkoxylchalcones as cancer chemopreventive agents” (Bioorg Med Chem, 2008):
pIC50: −log10 of the molar value. Activity calls are given as the source filed them. The calls are words filed in the database; no cut-off is given here.

Experiments:
HT-29 = experiment: Cytotoxicity against human HT29 cells by MTT assay; type: functional, cell-based
MCF7 = experiment: Cytotoxicity against human MCF7 cells by MTT assay; type: functional, cell-based
[1] = Cytotoxicity against human Hep3B cells by MTT assay; type: functional, cell-based, Hep 3B2
RAW264.7 [2] = experiment: Antiinflammatory activity against mouse RAW264.7 cells assessed as inhibition of LPS-induced nitric oxide production; type: functional, cell-based
[3] = test system: Radical scavenging activity; experiment: Antioxidant activity assessed as DPPH radical scavenging activity; type: functional
A549 [4] = experiment: Cytotoxicity against human A549 cells by MTT assay; type: functional, cell-based
[5] = Antioxidant activity assessed as inhibition of superoxide radical-induced DNA damage of pBR322 at 300 uM after 20 mins by gel electrophoresis; type: functional
[6] = target: Xanthine dehydrogenase/oxidase (Homo sapiens, UniProt P47989); experiment: Inhibition of xanthine oxidase
Sequence of Xanthine dehydrogenase/oxidase (P47989 whole entry): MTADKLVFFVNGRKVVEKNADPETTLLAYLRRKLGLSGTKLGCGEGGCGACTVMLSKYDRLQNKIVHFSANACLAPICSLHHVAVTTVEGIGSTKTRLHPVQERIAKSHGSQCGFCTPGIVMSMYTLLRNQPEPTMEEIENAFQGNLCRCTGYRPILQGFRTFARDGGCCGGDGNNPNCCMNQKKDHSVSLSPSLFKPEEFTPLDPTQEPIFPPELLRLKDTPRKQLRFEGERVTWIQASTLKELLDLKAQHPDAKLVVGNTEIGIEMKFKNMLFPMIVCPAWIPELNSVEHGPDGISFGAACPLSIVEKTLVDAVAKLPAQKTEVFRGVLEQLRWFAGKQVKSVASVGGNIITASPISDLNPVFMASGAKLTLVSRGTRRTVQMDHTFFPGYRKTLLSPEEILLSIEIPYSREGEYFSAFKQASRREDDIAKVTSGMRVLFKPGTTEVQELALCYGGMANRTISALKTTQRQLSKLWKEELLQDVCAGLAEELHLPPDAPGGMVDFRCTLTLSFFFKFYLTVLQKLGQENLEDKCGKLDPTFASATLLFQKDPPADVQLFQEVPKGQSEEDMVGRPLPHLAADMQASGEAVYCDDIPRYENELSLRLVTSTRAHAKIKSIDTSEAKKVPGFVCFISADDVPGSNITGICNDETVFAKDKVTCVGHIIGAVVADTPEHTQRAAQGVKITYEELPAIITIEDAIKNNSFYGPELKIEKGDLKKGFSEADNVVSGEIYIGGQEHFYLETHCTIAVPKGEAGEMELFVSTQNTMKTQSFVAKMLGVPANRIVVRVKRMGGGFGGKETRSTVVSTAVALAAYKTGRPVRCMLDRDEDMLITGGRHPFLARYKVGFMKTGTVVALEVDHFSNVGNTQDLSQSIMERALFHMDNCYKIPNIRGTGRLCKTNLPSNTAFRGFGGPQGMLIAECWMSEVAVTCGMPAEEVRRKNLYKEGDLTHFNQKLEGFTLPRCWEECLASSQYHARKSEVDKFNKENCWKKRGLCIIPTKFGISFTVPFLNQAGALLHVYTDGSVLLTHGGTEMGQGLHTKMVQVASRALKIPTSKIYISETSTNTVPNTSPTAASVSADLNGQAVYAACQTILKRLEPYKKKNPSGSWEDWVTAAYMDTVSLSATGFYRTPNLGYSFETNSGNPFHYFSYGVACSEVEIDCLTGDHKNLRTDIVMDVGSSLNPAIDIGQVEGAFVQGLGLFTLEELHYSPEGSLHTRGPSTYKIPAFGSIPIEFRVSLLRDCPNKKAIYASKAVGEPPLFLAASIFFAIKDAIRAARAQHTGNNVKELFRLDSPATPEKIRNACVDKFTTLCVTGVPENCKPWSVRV

A549 [7] = experiment: Cell cycle arrest in human A549 cells assessed as accumulation at S phase at 0.03 uM after 24 hrs by flow cytometry; type: functional
A549 [8] = experiment: Cell cycle arrest in human A549 cells assessed as accumulation at G2/M phase at 10 uM after 24 hrs by flow cytometry; type: functional
A549 [9] = experiment: Cell cycle arrest in human A549 cells assessed as accumulation at G1 phase at 0.03 uM after 24 hrs by flow cytometry; type: functional
A549 [10] = experiment: Cell cycle arrest in human A549 cells assessed as accumulation at S phase at 0.1 uM after 24 hrs by flow cytometry; type: functional
[11] = Inhibition of tubulin polymerization
A549 [12] = experiment: Cell cycle arrest in human A549 cells assessed as accumulation at G2/M phase at 0.03 uM after 24 hrs by flow cytometry; type: functional
A549 [13] = experiment: Cell cycle arrest in human A549 cells assessed as accumulation at G2/M phase at 0.1 uM after 24 hrs by flow cytometry; type: functional
RAW264.7 [14] = experiment: Antiinflammatory activity against mouse RAW264.7 cells assessed as inhibition of LPS-induced TNFalpha formation; type: functional, cell-based
A549 [15] = experiment: Cell cycle arrest in human A549 cells assessed as accumulation at S phase at 10 uM after 24 hrs by flow cytometry; type: functional
A549 [16] = experiment: Cell cycle arrest in human A549 cells assessed as accumulation at G1 phase at 0.1 uM after 24 hrs by flow cytometry; type: functional
A549 [17] = experiment: Cell cycle arrest in human A549 cells assessed as accumulation at G1 phase at 10 uM after 24 hrs by flow cytometry; type: functional

Row | SMILES | pIC50 (HT-29) | pIC50 (MCF7) | pIC50 [1] | other results
1 | COc1ccc(O)c(C(=O)/C=C/c2ccc(C)s2)c1 | 4.15 | 4.46 | 4.06 | –
2 | CCCCOc1ccc(O)c(C(=O)/C=C/c2ccc(C)s2)c1 | 4.15 | 4.41 | 4.04 | –
3 | CCCCCOc1ccc(O)c(C(=O)/C=C/c2ccc(C)s2)c1 | 4.06 | 4.32 | 3.95 | –
4 | CCOc1ccc(O)c(C(=O)/C=C/c2ccc(C)s2)c1 | 4.36 | 4.63 | 4.04 | –
5 | CCCCOc1ccc(OC)cc1C(=O)/C=C/c1ccc(C)s1 | 4.21 | 4.86 | 4.97 | pIC50 (RAW264.7 [2]): 4.55
6 | Cc1ccc(/C=C/C(=O)c2cc(OC(C)C)ccc2O)s1 | 4.52 | 4.81 | 4.09 | –
7 | CCOc1ccc(OCC)c(C(=O)/C=C/c2ccc(C)s2)c1 | 5.49 | 5.85 | 4.50 | Activity [3]: inactive; pIC50 (A549 [4]): 5.36; Activity [5]: Active; pIC50 [6]: 4.67; pIC50 (RAW264.7 [2]): 4.78
8 | CCOc1ccc(OC)cc1C(=O)/C=C/c1ccc(C)s1 | 7.00 | 5.64 | 6.70 | Activity (A549 [7]): 27.69%; Activity [3]: inactive; Activity (A549 [8]): 11.627%; pIC50 (A549 [4]): 5.20; Activity (A549 [9]): 70.207%; Activity (A549 [10]): 28.384%; Activity [11]: Active; Activity (A549 [12]): 2.104%; Activity (A549 [13]): 5.698%; pIC50 (RAW264.7 [14]): 6.40; Activity (A549 [15]): 24.271%; Activity (A549 [16]): 65.919%; Activity [5]: Active; pIC50 [6]: 3.88; Activity (A549 [17]): 64.102%
9 | CCCOc1ccc(O)c(C(=O)/C=C/c2ccc(C)s2)c1 | 3.90 | 4.67 | 4.63 | –
10 | CCCOc1ccc(OC)cc1C(=O)/C=C/c1ccc(C)s1 | 4.06 | 6.10 | 5.15 | –
11 | COc1ccc(C(=O)/C=C/c2ccc(C)s2)c(O)c1O | 4.27 | 4.68 | 4.97 | –
12 | Cc1ccc(/C=C/C(=O)c2ccc(O)c(O)c2O)s1 | 4.44 | – | – | –
13 | O=c1[nH]cc(F)c(=O)[nH]1 [FLUOROURACIL] | – | – | 6.22 | –
14 | Cc1ccc(/C=C/C(=O)c2cc(OCC(C)C)ccc2O)s1 | 4.51 | 4.89 | 4.26 | –
